In US20240287138A1, “CYCLIC PEPTIDES FOR INHIBITING TNF RECEPTOR 1 ACTIVITY” (Merck Sharp & Dohme LLC, priority 2023, published 2024):
Numbered stars: 1 amine (or outer) side, 2 acyl side, 3 side chain; on linkers, the order of the positions; unused ones are H or OH. Bridge positions count the residues as written; N and C are the ends. Square brackets hold non-standard residues; d marks the D form. Peptide text beside a SMILES is read from it. Trp(βS-Me,7-OMe) = COc1cccc2c([C@H](C)[C@H](N)C(=O)O)c[nH]c12; X24 = O=C(O)c1ccc([C@@H](O)[C@H](N[*:1])C(=O)[*:2])cc1; Trp(7-Br) = N[C@@H](Cc1c[nH]c2c(Br)cccc12)C(=O)O; Trp(7-Cl) = N[C@@H](Cc1c[nH]c2c(Cl)cccc12)C(=O)O; X15 = C[C@H](c1ccc(O)cc1)[C@H](N[*:1])C(=O)[*:2]; Phe(3-CONH2) = NC(=O)c1cccc(C[C@H](N)C(=O)O)c1; Phe(4-CONH2) = NC(=O)c1ccc(C[C@H](N)C(=O)O)cc1; Phe(4-COOH) = N[C@@H](Cc1ccc(C(=O)O)cc1)C(=O)O; Trp(7-aza) = N[C@@H](Cc1c[nH]c2ncccc12)C(=O)O; Pip(5R-OH) = O=C(O)[C@@H]1CC[C@@H](O)CN1; X1 = O=C([C@@H]1CC[C@H](N[*:1])C1)[*:2]; Gly(N(CH2)3COOH) = O=C(O)CCCNCC(=O)O; Pip(4-aza) = O=C(O)[C@@H]1CNCCN1; 4Pal = N[C@@H](Cc1ccncc1)C(=O)O; NMeE = CN[C@@H](CCC(=O)O)C(=O)O; dHyp = O=C(O)[C@H]1C[C@H](O)CN1; Ahp(2) = CCCCC[C@H](N)C(=O)O; Pip = O=C(O)[C@@H]1CCCCN1; αMeS = C[C@](N)(CO)C(=O)O; Nle = CCCC[C@H](N)C(=O)O; Sar = CNCC(=O)O

Columns and labels:
human TNFR2 ECD protein = target: T1, human TNFR2 ECD protein (Homo sapiens, UniProt P20333); assay: SPR off-target binding (selectivity) to human TNFR2 ECD
T1 construct: HRV 3C protease cleavage site (C); 6His (C, cleaved yes); made in house; host or cells: Sf21 insect cells (baculovirus), secreted
T1 sequence (P20333 23-257): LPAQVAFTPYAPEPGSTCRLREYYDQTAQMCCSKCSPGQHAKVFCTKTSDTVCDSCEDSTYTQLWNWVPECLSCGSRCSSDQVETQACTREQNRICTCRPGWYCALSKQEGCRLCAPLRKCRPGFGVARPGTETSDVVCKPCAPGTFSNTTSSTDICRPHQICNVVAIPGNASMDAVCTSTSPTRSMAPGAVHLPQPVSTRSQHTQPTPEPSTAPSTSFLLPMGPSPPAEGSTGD
In short: (§1)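 Biotinylated avi-tagged human TNFR1 or TNFR2 ECD, expressed in Sf21 insect cells, captured on streptavidin SPR chip; peptide analytes run in 10 mM HEPES pH 7.4, 150 mM NaCl, 3 mM EDTA, 0.05% P20, 2% DMSO. kon and koff measured, affinity KA calculated.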

[1] = target: T2, human TNFR1 extracellular domain (ECD) protein (Homo sapiens, UniProt P19438); assay: SPR binding affinity to captured human TNFR1 ECD
T2 construct: HRV 3C protease cleavage site (C); 6His (C, cleaved yes); made in house; host or cells: Sf21 insect cells (baculovirus), secreted
T2 sequence (P19438 30-211): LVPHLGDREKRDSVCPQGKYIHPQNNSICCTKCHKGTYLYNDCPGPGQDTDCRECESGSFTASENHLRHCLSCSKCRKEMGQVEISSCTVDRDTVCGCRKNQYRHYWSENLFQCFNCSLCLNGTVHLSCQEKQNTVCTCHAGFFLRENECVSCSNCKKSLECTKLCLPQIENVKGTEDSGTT
In short: as §1

[2] = target: T3, human soluble TNFR1 (sTNFR1) (Homo sapiens, UniProt P19438); assay: Human sTNFR1-peptide displacement assay (LanthaScreen Eu TR-FRET binding assay)
T3 construct: made in house; host or cells: Sf21 (baculovirus)
T3 sequence (P19438 with tags, fused parts or gaps): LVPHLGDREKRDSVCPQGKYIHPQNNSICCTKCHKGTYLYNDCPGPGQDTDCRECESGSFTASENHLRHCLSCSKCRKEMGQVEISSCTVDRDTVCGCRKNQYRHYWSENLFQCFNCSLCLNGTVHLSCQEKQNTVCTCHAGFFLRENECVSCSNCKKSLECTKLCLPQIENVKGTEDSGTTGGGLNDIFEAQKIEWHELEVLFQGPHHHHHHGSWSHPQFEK
In short: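 Readout is the 665/615 nm TR-FRET ratio (Eu anti-His donor, streptavidin-Alexa647 acceptor), normalized to DMSO and saturating displacer, fit by Morrison-based five-parameter logistic for Kd^app. His-tagged sTNFR1 (1-211) prebound to 100 nM biotinylated peptide SEQ ID NO.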

Row | Compound | Kd (human TNFR2 ECD protein) [nM] | Kd [1] [nM] | Kd [2] [nM] | IC50 [2] [nM]
1 | CCCC[C@@H]1NC(=O)[C@@H]2CC[C@@H](C2)NC(=O)[C@H]([C@@H](C)c2c[nH]c3c(OC)cccc23)NC(=O)CN(C)C(=O)[C@H]([C@H](O)c2ccc(C(=O)O)cc2)NC(=O)[C@H](Cc2ccc(C(N)=O)cc2)NC(=O)[C@](C)(CO)NC(=O)[C@H](Cc2c[nH]c3c(Cl)cccc23)NC(=O)[C@H](Cc2ccncc2)NC(=O)[C@H](CC(N)=O)NC(=O)[C@H]2C[C@H](O)CN2C(=O)[C@H](Cc2c[nH]c3ccccc23)NC(=O)[C@@H]2CC[C@@H](O)CN2C(=O)[C@H](Cc2ccncc2)NC1=O [SEQ ID NO. 188] (cyclo([4Pal][Trp(7-Cl)][αMeS][Phe(4-CONH2)][X24][Sar][Trp(βS-Me,7-OMe)][X1][Nle][4Pal][Pip(5R-OH)]W[dHyp]N)) | > 1000 | 0.03 | 0.1 | 
2 | CN1CC(=O)N[C@@H](Cc2c[nH]c3ccccc23)C(=O)N[C@H](C(N)=O)CSCC(=O)N[C@@H](CCCCN)C(=O)N[C@@H](Cc2ccc(O)cc2)C(=O)N[C@@H](CO)C(=O)N[C@@H](Cc2c[nH]c3ccccc23)C(=O)N2CCC[C@@H]2C(=O)N[C@@H](CCC(N)=O)C(=O)N[C@@H](Cc2ccncc2)C(=O)N[C@@H](Cc2c[nH]c3ccccc23)C(=O)N[C@@](C)(CO)C(=O)N[C@@H](Cc2ccc(C(=O)O)cc2)C(=O)N[C@@H](Cc2ccc(O)cc2)C1=O [SEQ ID NO. 242] ({CH2CO}-KYSW[dP]Q[4Pal]W[αMeS][Phe(4-COOH)]Y[Sar]WC-NH2; thioether N-14) | > 1000 | 0.3 |  | 1.21
3 | CCCC[C@@H]1NC(=O)CSC[C@@H](C(N)=O)NC(=O)[C@H]([C@@H](C)c2c[nH]c3c(OC)cccc23)NC(=O)CN(C)C(=O)[C@H](Cc2ccc(O)cc2)NC(=O)[C@H](Cc2ccc(C(=O)O)cc2)NC(=O)[C@](C)(CO)NC(=O)[C@H](Cc2c[nH]c3c(Cl)cccc23)NC(=O)[C@H](Cc2ccncc2)NC(=O)[C@H](CC(N)=O)NC(=O)CN(CCCC(=O)O)C(=O)[C@H](Cc2c[nH]c3ncccc23)NC(=O)[C@@H]2CCCCN2C(=O)[C@H](Cc2ccncc2)NC1=O [SEQ ID NO. 157] ({CH2CO}-[Nle][4Pal][Pip][Trp(7-aza)][Gly(N(CH2)3COOH)]N[4Pal][Trp(7-Cl)][αMeS][Phe(4-COOH)]Y[Sar][Trp(βS-Me,7-OMe)]C-NH2; thioether N-14) | > 1000 | 0.5 | 0.64 | 0.72
4 | CCCCC[C@@H]1NC(=O)[C@@H]2CC[C@@H](C2)NC(=O)[C@H]([C@@H](C)c2c[nH]c3c(OC)cccc23)NC(=O)CN(C)C(=O)[C@H](Cc2cccc(C(N)=O)c2)NC(=O)[C@H](Cc2ccc(C(N)=O)cc2)NC(=O)[C@](C)(CO)NC(=O)[C@H](Cc2c[nH]c3c(Br)cccc23)NC(=O)[C@H](Cc2ccc(C(=O)O)cc2)NC(=O)[C@H](CC(N)=O)NC(=O)[C@H]2C[C@H](O)CN2C(=O)[C@H](Cc2c[nH]c3ccccc23)NC(=O)[C@@H]2CNCCN2C(=O)[C@H](Cc2ccncc2)NC1=O [SEQ ID NO. 109] (cyclo([4Pal][Pip(4-aza)]W[dHyp]N[Phe(4-COOH)][Trp(7-Br)][αMeS][Phe(4-CONH2)][Phe(3-CONH2)][Sar][Trp(βS-Me,7-OMe)][X1][Ahp(2)])) | > 1000 | 0.05 | 0.11 | 
5 | CCCC[C@@H]1NC(=O)CSC[C@@H](C(N)=O)NC(=O)[C@H]([C@@H](C)c2c[nH]c3c(OC)cccc23)NC(=O)CN(C)C(=O)[C@H](Cc2ccc(O)cc2)NC(=O)[C@H](Cc2ccc(C(=O)O)cc2)NC(=O)[C@](C)(CO)NC(=O)[C@H](Cc2c[nH]c3c(Cl)cccc23)NC(=O)[C@H](Cc2ccncc2)NC(=O)[C@H](CC(N)=O)NC(=O)[C@H](CCC(=O)O)N(C)C(=O)[C@H](Cc2c[nH]c3ncccc23)NC(=O)[C@H](CO)NC(=O)[C@H]([C@H](C)c2ccc(O)cc2)NC1=O [SEQ ID NO. 243] ({CH2CO}-[Nle][X15]S[Trp(7-aza)][NMeE]N[4Pal][Trp(7-Cl)][αMeS][Phe(4-COOH)]Y[Sar][Trp(βS-Me,7-OMe)]C-NH2; thioether N-14) | > 1000 | 0.06 | 0.49 | 
